For this assay, the target named is T1, KcsA-Kv1.1 T-only chimera (Streptomyces lividans, UniProt P0A334, R52A/G53E/A54E/P55A/G56E/A57S/Q58H/L59F/I60S/T61S/Y62I/R64D).
T1 sequence (P0A334 1-160 R52A/G53E/A54E/P55A/G56E/A57S/Q58H/L59F/I60S/T61S/Y62I/R64D): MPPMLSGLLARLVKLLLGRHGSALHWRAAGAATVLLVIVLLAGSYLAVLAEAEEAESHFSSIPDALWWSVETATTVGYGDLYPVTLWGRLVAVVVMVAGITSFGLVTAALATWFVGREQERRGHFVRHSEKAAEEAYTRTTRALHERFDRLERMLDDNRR
Description: Phage ELISA-binding assay, KcsA-Kv1.1 T-only. More on the design: species or system human Kv1.1 turret in Streptomyces lividans KcsA. Conditions: toxin displayed on M13 phage; Fig. 8C. As to the method:
Phage display test solutions were prepared according to routine phage display protocols ([62]). Phosphorylated and annealed oligonucleotides encoding the peptide construct were ligated into linearized pAS62 phagemid vector (https://patents.google.com/patent/WO2022144560A1/en) at a vector/insert ratio of 1:3. The final phagemid construct harbored a signal sequence followed by the peptide of interest, a linker sequence ([…]), and the C-terminal part of the P3 coat protein (amino acids: 216-424 of NP_510891.1). Chemically competent XL1-Blue E. coli cells (2022249, Agilent) were transformed with the ligation product and then streaked onto ampicillin (100 μg/ml) containing LB/Amp plates and incubated for 16 h at 37 °C. A few clones were sequenced, and a single colony with confirmed target sequence was inoculated into 3 ml 2 YT medium supplemented with 100 μg/ml ampicillin and incubated at 37 °C until the culture reached midlog phase. The culture was infected with M13KO7 helper phage (N0315S, New England Biolabs) (phage/cell ratio 10:1) and was incubated for 30 min at 37 °C. The 3 ml culture was transferred into 200 ml 2YT medium, supplemented with 100 μg/ml ampicillin and 25 μg/ml kanamycin, and incubated overnight at 37 °C. The overnight cell culture (200 ml) was pelleted by centrifugation at 8000g for 10 min in 400 ml centrifuge tubes at 4 °C. […] The particle concentrations of phage solutions were determined using a NanoDrop One C (Thermo Fisher Scientific) spectrophotometer. The phage particle concentration was assessed according to the formula: (A268–A320) × 5 × 10^12 particles/ml ([62]). […]
Phage stock solutions were diluted to working concentration with phage resuspension buffer supplemented with 2 mM DDM. […] Following blocking, the wells were washed 4× with washing buffer (300 μl TBS-Tween, 0.1% v/v) using a Wellwash Versa microplate washer (Thermo Fisher Scientific); then 50 μl phage solution (in TBS-BSA-Tween, 0.1% v/v, 2 mM DDM) at determined phage concentration was added to the wells and incubated for 1 h at room temperature on a horizontal shaker. […]
In general terms: In an ELISA, binding on a coated surface is turned into a signal by an enzyme label.

The source of these data is paper PMC11002876, “KcsA-Kv1.x chimeras with complete ligand-binding sites provide improved predictivity for screening selective Kv1.x blockers” (The Journal of Biological Chemistry, 2024).

Where a SMILES comes first, the peptide text is derived from it.

With `CC[C@H](C)[C@H](NC(=O)[C@H](CCC(=O)O)NC(=O)[C@@H](NC(=O)CN)C(C)C)C(=O)N[C@@H](CC(N)=O)C(=O)N[C@H](C(=O)N[C@@H](CCCCN)C(=O)N[C@H]1CSSC[C@@H]2NC(=O)[C@H](CCCCN)NC(=O)CNC(=O)[C@H](Cc3ccccc3)NC(=O)[C@H](CCCNC(=N)N)NC(=O)[C@H](CCSC)NC(=O)CNC(=O)[C@H](C)NC(=O)[C@H](CC(=O)O)NC(=O)[C@H](CCCCN)NC(=O)[C@@H]3CSSC[C@@H](C(=O)N[C@H](C(=O)N4CCC[C@H]4C(=O)N[C@@H](CCCCN)C(=O)O)[C@@H](C)O)NC(=O)[C@H](Cc4c[nH]cn4)NC(=O)[C@H](CSSC[C@H](NC(=O)[C@H](CCC(N)=O)NC(=O)[C@@H]4CCCN4C(=O)[C@H](CO)NC(=O)CNC(=O)[C@H](CO)NC1=O)C(=O)N[C@@H](CC(C)C)C(=O)N[C@@H](CCCCN)C(=O)N1CCC[C@H]1C(=O)N3)NC(=O)[C@H](CCCCN)NC(=O)[C@H](CCCNC(=N)N)NC(=O)[C@H](CC(N)=O)NC(=O)[C@H](CCSC)NC2=O)C(C)C` [KTX1, Kaliotoxin-1], the “phage binding to KcsA-Kv1.1 T-only, in words” value is reported as “ShK > KTX1”.
Next, `CC[C@H](C)[C@@H]1NC(=O)[C@@H]2CSSC[C@H](NC(=O)[C@H](CO)NC(=O)[C@@H](N)C(C)C)C(=O)N[C@@H]([C@@H](C)O)C(=O)NCC(=O)N[C@@H](CO)C(=O)N[C@@H](CCCCN)C(=O)N[C@@H](CC(=O)O)C(=O)N[C@@H](CSSC[C@@H](C(=O)N[C@@H](CCCCN)C(=O)N[C@H]3CSSC[C@@H](C(N)=O)NC(=O)CNC(=O)[C@H](Cc4ccc(O)cc4)NC3=O)NC(=O)[C@H](CO)NC(=O)[C@H](CCCCN)NC(=O)[C@H](CC(N)=O)NC1=O)C(=O)N[C@@H](Cc1ccc(O)cc1)C(=O)N[C@@H](C)C(=O)N1CCC[C@H]1C(=O)N[C@H]1CSSC[C@H](NC(=O)CNC(=O)[C@H]([C@@H](C)O)NC(=O)[C@H](CCC(N)=O)NC(=O)[C@H](CCCCN)NC(=O)[C@H](CCCNC(=N)N)NC1=O)C(=O)N1CCC[C@H]1C(=O)N[C@@H](CC(N)=O)C(=O)N[C@@H](C)C(=O)N[C@@H](CCCCN)C(=O)N2` [MTX, Maurotoxin] (HELM PEPTIDE1{V.S.C.T.G.S.K.D.C.Y.A.P.C.R.K.Q.T.G.C.P.N.A.K.C.I.N.K.S.C.K.C.Y.G.C.[am]}$PEPTIDE1,PEPTIDE1,3:R3-24:R3|PEPTIDE1,PEPTIDE1,9:R3-29:R3|PEPTIDE1,PEPTIDE1,13:R3-19:R3|PEPTIDE1,PEPTIDE1,31:R3-34:R3$$$V2.0; N-terminus and C-terminus assumed): “negligible binding”.
As for `CC[C@H](C)[C@@H]1NC(=O)[C@@H](NC(=O)[C@H](CO)NC(=O)[C@@H](N)CCCNC(=N)N)CSSC[C@@H](C(=O)O)NC(=O)[C@H]([C@@H](C)O)NC(=O)CNC(=O)[C@@H]2CSSC[C@@H]3NC(=O)[C@H](CCC(N)=O)NC(=O)[C@H](Cc4ccccc4)NC(=O)[C@H](C)NC(=O)[C@H]([C@@H](C)O)NC(=O)[C@H](CSSC[C@H](NC(=O)[C@H](Cc4ccccc4)NC(=O)[C@H](CO)NC(=O)[C@H](CC(C)C)NC(=O)[C@H](CCCNC(=N)N)NC(=O)[C@H](Cc4ccc(O)cc4)NC(=O)[C@H](CCCCN)NC(=O)[C@H](CCSC)NC(=O)[C@H](CO)NC(=O)[C@H](Cc4c[nH]cn4)NC(=O)[C@H](CCCCN)NC3=O)C(=O)N[C@@H](CCCNC(=N)N)C(=O)N[C@@H](CCCCN)C(=O)N[C@@H]([C@@H](C)O)C(=O)N2)NC(=O)[C@H](CCCNC(=N)N)NC(=O)[C@H](CO)NC(=O)[C@H](CCCCN)NC(=O)[C@@H]2CCCN2C(=O)[C@H]([C@@H](C)CC)NC(=O)[C@H]([C@@H](C)O)NC(=O)[C@H](CC(=O)O)NC1=O` [ShK, Stichodactyla toxin], the “phage binding to KcsA-Kv1.1 T-only, in words” value is listed as “ShK > KTX1”.
